# System: panel members
# Assay: Panel-mediated testing of Cannabis accessions with defined cannabinoid profiles (panel N=67, plus anecdotal evidence)
# Assay type: in vivo, human
# Excerpt: This method allowed deduction, and therefore, for the first time, the introduction of a new chemotaxonomic classification system merely based on the cannabinoid composition of the plant samples (strains). 15 chemotypes are defined and many more sub-chemotypes are lately added. The samples given to panel members (accessions) contained Cannabis flos, the dried flower tips of the female Cannabis plant. […] All the 45,000 different “strains” were collected and compared to the panel data and data derived from retrospective (meta-) research and anecdotal evidence mainly originated from users, for both recreative and medicinal usage, from the Netherlands. Accession from Spain is included as a parameter and seemed important for the chemotaxonomic scheme for Cannabis species.
# The anecdotal evidence is derived from and the panel members are selected from persons, men and women, of the age of 18 till 72 years old. They consumed cannabis joints or vapor having defined cannabinoid profiles, and record the effect during time. Monitoring takes 24 hours, to include data about wear-off problems after night (the next day). The cannabinoids according to the invention may for example be consumed as follows: • 1—Administered as Cannabis simplex per 50 mg unit dose for self-titration. […]
smiles,measurement,setting,value
CCCCCc1cc(O)c(C/C=C(\C)CCC=C(C)C)c(O)c1 [Cannabigerol],sleep attained by subjects,"all subjects, in high concentration range ""narcotic""",good or very good deep
same,Effects,"panel session, vapor, joints or tea potion, ad libitum, effects dosage and patient related",“indica” or “stoned” effects; drowsiness

# — patent US12357585B2, “Cannabigerol and pharmaceutical compositions comprising cannabigerol for use in the treatment of insomnia” (AKASHA CORPORATION, priority 2019, dated 2025)
